Measured values: patent publication US20110045082A1, “AGGLOMERATES BY CRYSTALLISATION” (priority 1999, published 2011)
Each block holds one molecule with its values, some of them ahead of it.

Tests used:
Format in all cases: physicochemical
[1] = Tapped bulk density of the powder
[2] = Compressibility of the powder
[3] = Average diameter of agglomerates; settings: agglomerates as obtained after drying
[4] = Loose bulk density of the powder
[5] = Particle size distribution
[6] = Table 1, agglomerated vs needle form
[7] = agitator 3000 RPM, 0.9 mm nozzle
[8] = High flow (solution 15 l/h, acetone 312 l/h)
[9] = Low flow (flows decreased by a factor 2)

Molecule: O=C(O)[C@H]1/C(=C/CO)O[C@@H]2CC(=O)N21 [Agglomerates of potassium clavulanate, potassium clavulanate]
Tapped bulk density [1, 6]: 0.68 g/mL
Compressibility [2, 6]: 28%
average diameter ([3]; listed as Example 8): 40-200 μm
Loose bulk density [4, 6]: 0.49 g/mL

Molecule: O=C(O)[C@H]1/C(=C/CO)O[C@@H]2CC(=O)N21 [Example 1, potassium clavulanate]
average diameter [3]: 100-1000 μm

Molecule: O=C(O)[C@H]1/C(=C/CO)O[C@@H]2CC(=O)N21 [Example 2, potassium clavulanate]
average diameter [3]: 500-1500 μm

Molecule: O=C(O)[C@H]1/C(=C/CO)O[C@@H]2CC(=O)N21 [Example 3, potassium clavulanate]
average diameter [3]: 1000 μm

Molecule: O=C(O)[C@H]1/C(=C/CO)O[C@@H]2CC(=O)N21 [Example 4, potassium clavulanate]
average diameter [3]: 500-1000 μm

Molecule: O=C(O)[C@H]1/C(=C/CO)O[C@@H]2CC(=O)N21 [Example 5, potassium clavulanate]
average diameter [3]: 50-250 μm

Molecule: O=C(O)[C@H]1/C(=C/CO)O[C@@H]2CC(=O)N21 [Example 6, potassium clavulanate]
average diameter [3]: 10-200 μm

Molecule: O=C(O)[C@H]1/C(=C/CO)O[C@@H]2CC(=O)N21 [Example 7, potassium clavulanate]
average diameter [3]: 500-1500 μm

Molecule: O=C(O)[C@H]1/C(=C/CO)O[C@@H]2CC(=O)N21 [Example 9, potassium clavulanate]
Tapped bulk density [1, 7]: 0.30 g/mL
Compressibility [2, 7]: 27%
Loose bulk density [4, 7]: 0.22 g/mL
particle size distribution 75-150 μm ([5]; Table 2, 3000 RPM): 43.3 volume %
particle size distribution 150-250 μm ([5]; Table 2, 3000 RPM): 8 volume %
particle size distribution 250-500 μm ([5]; Table 2, 3000 RPM): 1 volume %
particle size distribution 500-710 μm ([5]; Table 2, 3000 RPM): 0.2 volume %
particle size distribution <75 μm ([5]; Table 2, 3000 RPM): 46.3 volume %
particle size distribution >710 μm ([5]; Table 2, 3000 RPM): 0.1 volume %

Molecule: O=C(O)[C@H]1/C(=C/CO)O[C@@H]2CC(=O)N21 [Example 10, potassium clavulanate]
Tapped bulk density ([1]; agitator speed 1000 RPM): 0.44 g/mL
Tapped bulk density ([1]; agitator speed 2000 RPM): 0.47 g/mL
Compressibility ([2]; agitator speed 1000 RPM): 11%
Compressibility ([2]; agitator speed 2000 RPM): 11%
Loose bulk density ([4]; agitator speed 1000 RPM): 0.39 g/mL
Loose bulk density ([4]; agitator speed 2000 RPM): 0.42 g/mL
particle size distribution 75-150 μm ([5]; agitator speed 1000 RPM): 6.5 volume %
particle size distribution 150-250 μm ([5]; agitator speed 1000 RPM): 20.7 volume %
particle size distribution 250-500 μm ([5]; agitator speed 1000 RPM): 60.8 volume %
particle size distribution 500-710 μm ([5]; agitator speed 1000 RPM): 6.1 volume %
particle size distribution <75 μm ([5]; agitator speed 1000 RPM): 5.1 volume %
particle size distribution >710 μm ([5]; agitator speed 1000 RPM): 0.2 volume %
particle size distribution 75-150 μm ([5]; agitator speed 2000 RPM): 2.4 volume %
particle size distribution 150-250 μm ([5]; agitator speed 2000 RPM): 9.5 volume %
particle size distribution 250-500 μm ([5]; agitator speed 2000 RPM): 57.3 volume %
particle size distribution 500-710 μm ([5]; agitator speed 2000 RPM): 27 volume %
particle size distribution <75 μm ([5]; agitator speed 2000 RPM): 1.8 volume %
particle size distribution >710 μm ([5]; agitator speed 2000 RPM): 1.5 volume %

Molecule: O=C(O)[C@H]1/C(=C/CO)O[C@@H]2CC(=O)N21 [Example 11, potassium clavulanate]
Tapped bulk density [1, 8]: 0.36 g/mL
Tapped bulk density [1, 9]: 0.44 g/mL
Compressibility [2, 8]: 25%
Compressibility [2, 9]: 20%
Loose bulk density [4, 8]: 0.27 g/mL
Loose bulk density [4, 9]: 0.35 g/mL
particle size distribution 75-150 μm ([5]; High flow): 41.2 volume %
particle size distribution 150-250 μm ([5]; High flow): 9.3 volume %
particle size distribution 250-500 μm ([5]; High flow): 0.3 volume %
particle size distribution 500-710 μm ([5]; High flow): 0 volume %
particle size distribution <75 μm ([5]; High flow): 48.7 volume %
particle size distribution >710 μm ([5]; High flow): 0 volume %
particle size distribution 75-150 μm ([5]; Low flow): 50.4 volume %
particle size distribution 150-250 μm ([5]; Low flow): 1.1 volume %
particle size distribution 250-500 μm ([5]; Low flow): 0.6 volume %
particle size distribution 500-710 μm ([5]; Low flow): 0.4 volume %
particle size distribution <75 μm ([5]; Low flow): 48.8 volume %
particle size distribution >710 μm ([5]; Low flow): 0 volume %

Molecule: O=C(O)[C@H]1/C(=C/CO)O[C@@H]2CC(=O)N21 [Needles of Potassium clavulanate, potassium clavulanate, reference compound]
Tapped bulk density [1, 6]: 0.36 g/mL
Compressibility [2, 6]: 50%
Loose bulk density [4, 6]: 0.18 g/mL

Tapped bulk density ([1]; Nozzle diameter 0.9 mm): 0.3 g/mL
Tapped bulk density ([1]; Nozzle diameter 1.2 mm): 0.44 g/mL
Loose bulk density ([4]; Nozzle diameter 0.9 mm): 0.22 g/mL
Loose bulk density ([4]; Nozzle diameter 1.2 mm): 0.36 g/mL
particle size distribution 75-150 μm ([5]; Nozzle diameter 0.9 mm): 43.3 volume %
particle size distribution 150-250 μm ([5]; Nozzle diameter 0.9 mm): 8 volume %
particle size distribution 250-500 μm ([5]; Nozzle diameter 0.9 mm): 1 volume %
particle size distribution 500-710 μm ([5]; Nozzle diameter 0.9 mm): 0.2 volume %
particle size distribution <75 μm ([5]; Nozzle diameter 0.9 mm): 46.3 volume %
particle size distribution >710 μm ([5]; Nozzle diameter 0.9 mm): 0.1 volume %
particle size distribution 75-150 μm ([5]; Nozzle diameter 1.2 mm): 50.6 volume %
particle size distribution 150-250 μm ([5]; Nozzle diameter 1.2 mm): 31.3 volume %
particle size distribution 250-500 μm ([5]; Nozzle diameter 1.2 mm): 1.9 volume %
particle size distribution 500-710 μm ([5]; Nozzle diameter 1.2 mm): 0 volume %
particle size distribution <75 μm ([5]; Nozzle diameter 1.2 mm): 15.9 volume %
particle size distribution >710 μm ([5]; Nozzle diameter 1.2 mm): 0.3 volume %
Molecule: potassium clavulanate [Example 12]
